# In US20230017045A1, “PYRIDINE AND PYRIMIDINE CARBOXYLATE HERBICIDES AND METHODS OF USE THEREOF” (Dow AgroSciences LLC, priority 2017, published 2023):
# Test system: test plant species
# Assay: Post-emergent herbicidal activity test (greenhouse, foliar spray, visual growth reduction)
# Format: in vivo
# Conditions: post-emergence, 336 h, ECHCG: barnyardgrass (Echinochloa crus-galli), 140 g ai/ha, 14 days after application, read-out: Visual Growth Reduction (%) 14 Days After Application, ECHCG
# Outline: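 Plants grown in greenhouse (15 h photoperiod, 23-29° C day/22-28° C night) to first or second true leaf stage were sprayed overhead with compound in acetone/water/isopropanol/DMSO/crop oil/X-77 carrier at 187 L/ha. Injury was scored visually after 14 d on a 0-100% scale versus solvent-blank and untreated controls.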
row,Structure (SMILES),pest or weed control at 140 g/ha [%]
1,"COC(=O)c1nc(-c2ccc(C(F)(F)F)c(F)c2)c(F)cc1Cl [F307, Methyl 3-chloro-5-fluoro-6-(3-fluoro-4-(trifluoromethyl)phenyl) picolinate]",0 to 29
2,"O=C(O)c1nc(-c2cnc(C(F)(F)F)cc2Cl)ccc1Cl [F205, 4′,5-Dichloro-6′-(trifluoromethyl)-[2,3′-bipyridine]-6-carboxylic acid]",45 to 59

# Same assay, conditions: post-emergence, 336 h, IPOHE: ivy-leaf morning glory (Ipomoea hederacea), 140 g ai/ha, 14 days after application, read-out: Visual Growth Reduction (%) 14 Days After Application, IPOHE
row,Structure (SMILES),pest or weed control at 140 g/ha [%]
1,"COC(=O)c1nc(-c2ccc(C(F)(F)F)c(F)c2)c(F)cc1Cl [F307, Methyl 3-chloro-5-fluoro-6-(3-fluoro-4-(trifluoromethyl)phenyl) picolinate]",95 to 100
2,"O=C(O)c1nc(-c2cnc(C(F)(F)F)cc2Cl)ccc1Cl [F205, 4′,5-Dichloro-6′-(trifluoromethyl)-[2,3′-bipyridine]-6-carboxylic acid]",95 to 100

# Same assay, conditions: post-emergence, 336 h, KCHSC: kochia (Bassia scoparia), 140 g ai/ha, 14 days after application, read-out: Visual Growth Reduction (%) 14 Days After Application, KCHSC
row,Structure (SMILES),pest or weed control at 140 g/ha [%]
1,"COC(=O)c1nc(-c2ccc(C(F)(F)F)c(F)c2)c(F)cc1Cl [F307, Methyl 3-chloro-5-fluoro-6-(3-fluoro-4-(trifluoromethyl)phenyl) picolinate]",0 to 29
2,"O=C(O)c1nc(-c2cnc(C(F)(F)F)cc2Cl)ccc1Cl [F205, 4′,5-Dichloro-6′-(trifluoromethyl)-[2,3′-bipyridine]-6-carboxylic acid]",0 to 29

# Same assay, conditions: post-emergence, 336 h, ORYSA: rice (Oryza sativa), 140 g ai/ha, 14 days after application, read-out: Visual Growth Reduction (%) 14 Days After Application, ORYSA
row,Structure (SMILES),pest or weed control at 140 g/ha [%]
1,"COC(=O)c1nc(-c2ccc(C(F)(F)F)c(F)c2)c(F)cc1Cl [F307, Methyl 3-chloro-5-fluoro-6-(3-fluoro-4-(trifluoromethyl)phenyl) picolinate]",0 to 29
2,"O=C(O)c1nc(-c2cnc(C(F)(F)F)cc2Cl)ccc1Cl [F205, 4′,5-Dichloro-6′-(trifluoromethyl)-[2,3′-bipyridine]-6-carboxylic acid]",0 to 29

# Same assay, conditions: post-emergence, 336 h, SETFA: giant foxtail (Setaria faberi), 140 g ai/ha, 14 days after application, read-out: Visual Growth Reduction (%) 14 Days After Application, SETFA
row,Structure (SMILES),pest or weed control at 140 g/ha [%]
1,"COC(=O)c1nc(-c2ccc(C(F)(F)F)c(F)c2)c(F)cc1Cl [F307, Methyl 3-chloro-5-fluoro-6-(3-fluoro-4-(trifluoromethyl)phenyl) picolinate]",0 to 29
2,"O=C(O)c1nc(-c2cnc(C(F)(F)F)cc2Cl)ccc1Cl [F205, 4′,5-Dichloro-6′-(trifluoromethyl)-[2,3′-bipyridine]-6-carboxylic acid]",75 to 84

# Same assay, conditions: post-emergence, 336 h, SORVU: grain sorghum (Sorghum vulgare), 140 g ai/ha, 14 days after application, read-out: Visual Growth Reduction (%) 14 Days After Application, SORVU
row,Structure (SMILES),pest or weed control at 140 g/ha [%]
1,"COC(=O)c1nc(-c2ccc(C(F)(F)F)c(F)c2)c(F)cc1Cl [F307, Methyl 3-chloro-5-fluoro-6-(3-fluoro-4-(trifluoromethyl)phenyl) picolinate]",85 to 94
2,"O=C(O)c1nc(-c2cnc(C(F)(F)F)cc2Cl)ccc1Cl [F205, 4′,5-Dichloro-6′-(trifluoromethyl)-[2,3′-bipyridine]-6-carboxylic acid]",75 to 84

# Same assay, conditions: post-emergence, 336 h, STEME: common chickweed (Stellaria media), 140 g ai/ha, 14 days after application, read-out: Visual Growth Reduction (%) 14 Days After Application, STEME
row,Structure (SMILES),pest or weed control at 140 g/ha [%]
1,"COC(=O)c1nc(-c2ccc(C(F)(F)F)c(F)c2)c(F)cc1Cl [F307, Methyl 3-chloro-5-fluoro-6-(3-fluoro-4-(trifluoromethyl)phenyl) picolinate]",0 to 29
2,"O=C(O)c1nc(-c2cnc(C(F)(F)F)cc2Cl)ccc1Cl [F205, 4′,5-Dichloro-6′-(trifluoromethyl)-[2,3′-bipyridine]-6-carboxylic acid]",0 to 29

# Same assay, conditions: post-emergence, 336 h, TRZAS: wheat, spring (Triticum aestivum), 140 g ai/ha, 14 days after application, read-out: Visual Growth Reduction (%) 14 Days After Application, TRZAS
row,Structure (SMILES),pest or weed control at 140 g/ha [%]
1,"COC(=O)c1nc(-c2ccc(C(F)(F)F)c(F)c2)c(F)cc1Cl [F307, Methyl 3-chloro-5-fluoro-6-(3-fluoro-4-(trifluoromethyl)phenyl) picolinate]",0 to 29
2,"O=C(O)c1nc(-c2cnc(C(F)(F)F)cc2Cl)ccc1Cl [F205, 4′,5-Dichloro-6′-(trifluoromethyl)-[2,3′-bipyridine]-6-carboxylic acid]",0 to 29

# Same assay, conditions: post-emergence, 336 h, blackgrass (Alopecurus myosuroides), 14 Days After Application, 140 g ai/ha, read-out: Visual Growth Reduction (%) ALOMY
row,Structure (SMILES),pest or weed control at 140 g/ha [%]
1,"COC(=O)c1nc(-c2ccc(C(F)(F)F)c(F)c2)c(F)cc1Cl [F307, Methyl 3-chloro-5-fluoro-6-(3-fluoro-4-(trifluoromethyl)phenyl) picolinate]",0 to 29
2,"O=C(O)c1nc(-c2cnc(C(F)(F)F)cc2Cl)ccc1Cl [F205, 4′,5-Dichloro-6′-(trifluoromethyl)-[2,3′-bipyridine]-6-carboxylic acid]",0 to 29

# Same assay, conditions: post-emergence, 336 h, canada thistle (Cirsium arvense), 14 Days After Application, 140 g ai/ha, read-out: Visual Growth Reduction (%) CIRAR
row,Structure (SMILES),pest or weed control at 140 g/ha [%]
1,"COC(=O)c1nc(-c2ccc(C(F)(F)F)c(F)c2)c(F)cc1Cl [F307, Methyl 3-chloro-5-fluoro-6-(3-fluoro-4-(trifluoromethyl)phenyl) picolinate]",0 to 29
2,"O=C(O)c1nc(-c2cnc(C(F)(F)F)cc2Cl)ccc1Cl [F205, 4′,5-Dichloro-6′-(trifluoromethyl)-[2,3′-bipyridine]-6-carboxylic acid]",75 to 84

# Same assay, conditions: post-emergence, 336 h, crabgrass (Digitaria sanguinalis), 14 Days After Application, 140 g ai/ha, read-out: Visual Growth Reduction (%) DIGSA
row,Structure (SMILES),pest or weed control at 140 g/ha [%]
1,"COC(=O)c1nc(-c2ccc(C(F)(F)F)c(F)c2)c(F)cc1Cl [F307, Methyl 3-chloro-5-fluoro-6-(3-fluoro-4-(trifluoromethyl)phenyl) picolinate]",85 to 94
2,"O=C(O)c1nc(-c2cnc(C(F)(F)F)cc2Cl)ccc1Cl [F205, 4′,5-Dichloro-6′-(trifluoromethyl)-[2,3′-bipyridine]-6-carboxylic acid]",45 to 59

# Same assay, conditions: post-emergence, 336 h, lambsquarters (Chenopodium album), 14 Days After Application, 140 g ai/ha, read-out: Visual Growth Reduction (%) CHEAL
row,Structure (SMILES),pest or weed control at 140 g/ha [%]
1,"COC(=O)c1nc(-c2ccc(C(F)(F)F)c(F)c2)c(F)cc1Cl [F307, Methyl 3-chloro-5-fluoro-6-(3-fluoro-4-(trifluoromethyl)phenyl) picolinate]",75 to 84
2,"O=C(O)c1nc(-c2cnc(C(F)(F)F)cc2Cl)ccc1Cl [F205, 4′,5-Dichloro-6′-(trifluoromethyl)-[2,3′-bipyridine]-6-carboxylic acid]",75 to 84

# Same assay, conditions: post-emergence, 336 h, redroot pigweed (Amaranthus retroflexus), 14 Days After Application, 140 g ai/ha, read-out: Visual Growth Reduction (%) AMARE
row,Structure (SMILES),pest or weed control at 140 g/ha [%]
1,"COC(=O)c1nc(-c2ccc(C(F)(F)F)c(F)c2)c(F)cc1Cl [F307, Methyl 3-chloro-5-fluoro-6-(3-fluoro-4-(trifluoromethyl)phenyl) picolinate]",75 to 84
2,"O=C(O)c1nc(-c2cnc(C(F)(F)F)cc2Cl)ccc1Cl [F205, 4′,5-Dichloro-6′-(trifluoromethyl)-[2,3′-bipyridine]-6-carboxylic acid]",30 to 44

# Same assay, conditions: post-emergence, 336 h, wild oat (Avena fatua), 14 Days After Application, 140 g ai/ha, read-out: Visual Growth Reduction (%) AVEFA
row,Structure (SMILES),pest or weed control at 140 g/ha [%]
1,"COC(=O)c1nc(-c2ccc(C(F)(F)F)c(F)c2)c(F)cc1Cl [F307, Methyl 3-chloro-5-fluoro-6-(3-fluoro-4-(trifluoromethyl)phenyl) picolinate]",0 to 29
2,"O=C(O)c1nc(-c2cnc(C(F)(F)F)cc2Cl)ccc1Cl [F205, 4′,5-Dichloro-6′-(trifluoromethyl)-[2,3′-bipyridine]-6-carboxylic acid]",0 to 29

# Same assay, conditions: post-emergence, 336 h, yellow nutsedge (Cyperus esculentus), 14 Days After Application, 140 g ai/ha, read-out: Visual Growth Reduction (%) CYPES
row,Structure (SMILES),pest or weed control at 140 g/ha [%]
1,"COC(=O)c1nc(-c2ccc(C(F)(F)F)c(F)c2)c(F)cc1Cl [F307, Methyl 3-chloro-5-fluoro-6-(3-fluoro-4-(trifluoromethyl)phenyl) picolinate]",0 to 29
2,"O=C(O)c1nc(-c2cnc(C(F)(F)F)cc2Cl)ccc1Cl [F205, 4′,5-Dichloro-6′-(trifluoromethyl)-[2,3′-bipyridine]-6-carboxylic acid]",0 to 29
